# From patent US7053041B1, “Methods and compositions useful for inhibition of αvβ5mediated angiogenesis” (The Scripps Research Institute, priority 1996, dated 2006)
# Columns and labels:
# Type in all cases: in vivo
# [1] = system: angiogenesis induced by PMA; assay: chick CAM assay, PMA-induced angiogenesis; details: PMA 20 ng/ml; antibodies 75 μg per embryo, calphostin C 100 nM
# Method: (§1) The above growth factors (cytokines), including bFGF and VEGF, were separately applied at a concentration of 1.0 μg/ml to the 10 day old CAM model as previously described. PMA was used at a concentration of 20 ng/ml.
# (§2) After 24 hours after growth factor treatment, the antibodies, LM609 and P1F6, or the protein kinase C (PKC) inhibitor, calphostin C, were separately provided to the CAM model, either by a single intravascular dose as described above or by topical administration as described below in the next example. For intravascular injections over the next 3 day consecutive period, the antibodies were used at a concentration of 75 μg per embryo and the calphostin C was at a dosage of 100 nM.
# (§3) On day 13, filter discs and associated CAM tissue were dissected and analyzed for angiogenesis with a stereo microscope. Angiogenesis was scored in a double blind manner by analyzing the number and extent of branching of the blood vessels within the area of the discs. The scores ranged from low (1) to high (4). The angiogenesis index was determined by subtracting a background score of 1 from all data. Experiments were repeated 2–4 times with 5–6 embryos per condition.
# [2] = system: VEGF-induced angiogenesis; assay: chick CAM assay, VEGF-induced angiogenesis, intravenous inhibitors
# Method: (§4) Ten day old chick embryos were obtained from McIntyre Poultry (Lakeside, Calif.) and incubated at 37C with 60% humidity. A small hole was made through the shell at the end of the egg directly over the air sac with the use of a small crafts drill (Dremel, Division of Emerson Electric Co., Racine, Wis.). A second hole was drilled on the broad side of the egg in a region devoid of embryonic blood vessels determined previously by candling the egg. […] A 1.0 centimeter (cm)×1.0 cm square window was cut through the shell over the dropped CAM with the use of a small model grinding wheel (Dremel). The small window allowed direct access to the underlying CAM.
# (§5) Angiogenesis was induced by placing a 5 millimeter (mm)×5 mm Whatman filter disk (Whatman Filter paper No. 1) saturated with Hanks Balanced Salt Solution (HBSS, GIBCO, Grand Island, N.Y.) or HBSS containing preselected cytokines at a preselected concentration, i.e. one to test the effect on angiogenesis, on the CAM of a 10 day chick embryo in a region devoid of blood vessels and the windows were later sealed with tape. Angiogenesis was monitored by photomicroscopy after 72 hours. CAMs were snap frozen then 6 μm cryostat sections were fixed with acetone and stained by immunofluorescence as described in Example 2B and 2C with 10 μg/ml of selected anti-integrin antibodies, including those directed against αvβ5 as described in Example 1.
# (§6) Angiogenesis was first induced on 10 day old chick embryos by application of growth factor-saturated filter disks. Specifically, in the first assays, angiogenesis was induced by exposure to either bFGF or VEGF, each at a concentration of 150 ng/ml.
# (§7) For application of growth factors, during the candling procedures, prominent blood vessels were selected and marks were made on the egg shell to indicate their positions. The holes were drilled in the shell, the CAMs were dropped and growth factor-saturated filter papers were then separately placed on the CAMs as described above. The windows were sealed with sterile tape and the embryos were replaced in the incubator.
# (§8) Twenty four hours later, a second small window was carefully cut on the lateral side of the egg shell directly over prominent blood vessels selected previously. The outer egg shell was carefully removed leaving the embryonic membranes intact. The shell membrane was made transparent with a small drop of mineral oil (Perkin-Elmer Corp, Norwalk, Conn.) which allowed the blood vessels to be visualized easily. Then, phosphate buffered saline (PBS), 75 μg of purified sterile anti-integrin antibodies or 75 μg of synthetic peptides (cyclic peptide RGDfV, SEQ ID NO 4 and control cyclic peptide RADfV, SEQ ID NO 5) in PBS were injected into blood vessels apparent on the growth factor-induced CAMs. The windows were sealed with tape and the embryos were allowed to incubate until 72 hours.
# (§9) The filter discs and representative surrounding CAM tissues were photographed in a stereomicroscope (FIGS. 3A–3F and FIGS. 5A–5F) and the mean angiogenic index +/− the standard error was determined for 12 CAMs per condition (FIGS. 4A–4B and FIGS. 6A–6B). Angiogenesis was scored for each embryo in a double blind manner by analyzing the number and extent of branching of blood vessels within the area of each disc. The scores ranged from 1 (low) to 4 (high) and the angiogenesis index was determined by subtracting a background of 1 from all data.
# In a further assay performed in the CAM model having VEGF-induced angiogenesis, 2 μg of peptides 85189 (SEQ ID NO 9) and the inert salt counterpart 121974 were separately intravenously injected as previously described. The effect of the peptides was assessed in comparison to that of control peptide 69601 (SEQ ID NO 5) and to untreated (labeled as NT) preparations.
# The effect of the peptides of VEGF-induced angiogenesis is measured through a determination of the number of blood vessel branch points. […]
# [3] = system: TNF-α mediated angiogenesis; assay: chick CAM assay, TNF-α-induced angiogenesis; details: TNF-α 1.0 μg/ml; antibodies 75 μg per embryo, calphostin C 100 nM
# Method: as §1, §2, §3
# [4] = system: bFGF-induced angiogenesis; assay: chick CAM assay, bFGF-induced angiogenesis, intravenous inhibitors
# Method: as §4, §5, §6, §7, §8
# as §9, with “data. […]” for “data.”
# [5] = system: angiogenesis induced by TGF-α; assay: chick CAM assay, TGF-α-induced angiogenesis; details: TGF-α 1.0 μg/ml; antibodies 75 μg per embryo, calphostin C 100 nM
# Method: as §1, §2, §3
# retinal vasculogenesis = assay: newborn mouse model of retinal angiogenesis
# Method: For the model, newborn mice were injected subcutaneously twice daily for four days starting from day 0 with the cyclic peptide RGDfV (SEQ ID NO 4) (also referred to as peptide 203) or the control peptide RADfV (SEQ ID NO 5). On postnatal day five, globes were removed and fixed in 4.0% paraformaldehyde (PFA) at room temperature.
# To quantitate mouse retinal angiogenesis, the distance from the optic nerve head to the most distal point of a single vessel selected in each of six equal sectors around a twelve hour clock was measured. The mean distance was calculated and averaged with similar data obtained from an entire litter. To measure the total volume of retinal blood vessels, the entire specimen was scanned in 2.0 μm optical sections and stored digitally. The “seed” function in Bio-Rad's Lasersharp software was then used to threshold and count cubic pixels in each section. A macro was written to sum the volume of all sections and determine the value for all vascular structures.
substance,measurement,setting,value
calphostin C [reference compound],effect on CAM angiogenesis induced by PMA (angiogenesis index),[1],blocked angiogenesis
same,effect on CAM angiogenesis induced by VEGF (angiogenesis index),"[2]; VEGF 1.0 μg/ml, antibodies 75 μg per embryo, calphostin C 100 nM",blocked angiogenesis
same,effect on CAM angiogenesis in response to TNF-α (angiogenesis index),[3],minimal effects
same,effect on CAM angiogenesis in response to bFGF (angiogenesis index),"[4]; bFGF 1.0 μg/ml, antibodies 75 μg per embryo, calphostin C 100 nM",minimal effects
same,effect on CAM angiogenesis induced by TGF-α (angiogenesis index),[5],blocked angiogenesis
cyclo(Arg-Gly-Asp-D-Phe-Val) [compound 66203],volume of retinal blood vessels compared with untreated newborn mice,retinal vasculogenesis; five-day old treated animals,indistinguishable
same,inhibition of retinal vasculogenesis compared to untreated counterparts,"retinal vasculogenesis; newborn mice, s.c. twice daily for four days",~100%
same,mean volume of retinal vessels,retinal vasculogenesis; postnatal day five,3.6×10^6 μm^3
same,inhibition of retinal vasculogenesis relative to control peptide (vessel growth in two dimensions),"retinal vasculogenesis; s.c. twice daily for four days from day 0, postnatal day five, N=9",44%
same,reduction in retinal vascular volume compared to controls,"retinal vasculogenesis; three dimensional analysis, postnatal day five",78%
same,difference in vessel growth between untreated newborn mice and treated five-day old mice,retinal vasculogenesis; two dimensions,No statistical difference
same,inhibition of VEGF-induced CAM angiogenesis,"[2]; VEGF 150 ng/ml, 75 μg antibody or peptide intravenously, 72 hours",abolished angiogenesis
same,inhibition of bFGF-induced CAM angiogenesis,"[4]; bFGF 150 ng/ml, 75 μg antibody or peptide intravenously, 72 hours",abolished angiogenesis
